Tests used:
wild oat [1] = test: Test Example 5: herbicidal effect by foliage application, plastic box (Table 20, symbol I); format: in vivo, wild oat (Avena fatua); conditions: foliage application, AAH 320 g/ha
Method in brief: (§1)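 Foliar spray test: emulsion formulation diluted in water to a set application rate, sprayed onto 14-day-old plants raised in diluvial soil at 25° C to 30° C under glass. Both herbicidal effect and crop effect rated visually three weeks later.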

velvetleaf [2] = test: Test Example 4: herbicidal effect by soil treatment (Table 19, symbol M); format: in vivo, velvetleaf (Abutilon theophrasti)
Method in brief: (§2)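 Step 1: sow seeds in sterilized diluvial soil, cover ~1.5 cm. Step 2: spray diluted emulsion onto soil surface at predetermined rate. Step 3: greenhouse, 25–30° C, three weeks. Step 4: grade effect on each plant by earlier criteria.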

blackgrass [3] = test: Test Example 5: herbicidal effect by foliage application, plastic box (Table 20, symbol J); format: in vivo, blackgrass (Alopecurus myosuroides); conditions: foliage application, AAH 320 g/ha, three weeks after application
Method in brief: as §1

southern crabgrass [4] = test: Test Example 4: herbicidal effect by soil treatment (Table 19, symbol F); format: in vivo, southern crabgrass (Digitaria ciliaris)
Method in brief: as §2

green foxtail [5] = test: Test Example 4: herbicidal effect by soil treatment (Table 19, symbol G); format: in vivo, green foxtail (Setaria viridis)
Method in brief: as §2

lambsquarters [6] = test: Test Example 4: herbicidal effect by soil treatment (Table 19, symbol O); format: in vivo, lambsquarters (Chenopodium album)
Method in brief: as §2

barnyard grass [7] = test: Test Example 3: herbicidal effect by foliage application, Wagner pot (Table 18, symbol H); format: in vivo, barnyard grass (Echinochloa crus-galli)
Method in brief: (§3)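 Plants were sown in alluvial soil held under 0.1–0.5 cm standing water and grown 14 days in a greenhouse at 25–30 °C. An emulsifiable formulation, water-diluted to the set dose, was then sprayed onto the foliage, and effects were scored three weeks later using previously defined criteria.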

chickweed [8] = test: Test Example 4: herbicidal effect by soil treatment (Table 19, symbol P); format: in vivo, common chickweed (Stellaria media)
Description: (§4) [Test Example 4] Herbicidal Effect Test by Soil Treatment
(§5) Sterilized diluvial soil was placed in a plastic box having a length of 21 cm, a width of 13 cm, and a depth of 7 cm. The seeds of each of southern crabgrass, green foxtail, barnyard grass, wild oat, blackgrass, Italian ryegrass, windgrass, velvetleaf, redroot pigweed, lambsquarters, chickweed, false cleavers, persian speedwell, corn, soybean, rice, wheat, beet, and rapeseed were sowed in a spot-like manner and covered with the soil having a thickness of about 1.5 cm. Subsequently, the emulsion agent of the compound of the present invention prepared according to Formulation Example 2 was diluted with water so as to achieve a predetermined herbicide amount, and the diluted emulsion agent was uniformly applied to the surface of the soil with a small-sized spray. The plastic box was placed in a greenhouse at 25° C. to 30° C. for growth of the plants. Three weeks after the herbicide application, the effect of the herbicide on each plant was evaluated according to the criteria of Test Example 1.

redroot pigweed [9] = test: Test Example 4: herbicidal effect by soil treatment (Table 19, symbol N); format: in vivo, redroot pigweed (Amaranthus retroflexus)
Method in brief: as §2

lambsquarters [10] = test: Test Example 5: herbicidal effect by foliage application, plastic box (Table 20, symbol O); format: in vivo, lambsquarters (Chenopodium album); conditions: foliage application, AAH 320 g/ha
Method in brief: as §1

windgrass [11] = test: Test Example 4: herbicidal effect by soil treatment (Table 19, symbol L); format: in vivo, windgrass (Apera spica-venti)
Description: as §4, §5

barnyard grass [12] = test: Test Example 4: herbicidal effect by soil treatment (Table 19, symbol H); format: in vivo, barnyard grass (Echinochloa crus-galli)
Method in brief: as §2

windgrass [13] = test: Test Example 5: herbicidal effect by foliage application, plastic box (Table 20, symbol L); format: in vivo, windgrass (Apera spica-venti); conditions: foliage application, AAH 320 g/ha
Method in brief: as §1

chickweed [14] = test: Test Example 5: herbicidal effect by foliage application, plastic box (Table 20, symbol P); format: in vivo, common chickweed (Stellaria media); conditions: foliage application, AAH 320 g/ha
Method in brief: as §1

redroot pigweed [15] = test: Test Example 5: herbicidal effect by foliage application, plastic box (Table 20, symbol N); format: in vivo, redroot pigweed (Amaranthus retroflexus); conditions: foliage application, AAH 320 g/ha
Method in brief: as §1

Chinese sprangletop = test: Test Example 3: herbicidal effect by foliage application, Wagner pot (Table 18, symbol D); format: in vivo, chinese sprangletop (Leptochloa chinensis)
Method in brief: as §3

wild oat [16] = test: Test Example 4: herbicidal effect by soil treatment (Table 19, symbol I); format: in vivo, wild oat (Avena fatua)
Description: as §4, §5

rice flat sedge = test: Test Example 3: herbicidal effect by foliage application, Wagner pot (Table 18, symbol E); format: in vivo, rice flat sedge (Cyperus iria)
Method in brief: as §3

barnyard grass [17] = test: Test Example 5: herbicidal effect by foliage application, plastic box (Table 20, symbol H); format: in vivo, barnyard grass (Echinochloa crus-galli); conditions: foliage application, AAH 320 g/ha
Method in brief: as §1

Italian ryegrass [18] = test: Test Example 5: herbicidal effect by foliage application, plastic box (Table 20, symbol K); format: in vivo, Italian ryegrass (Lolium multiflorum); conditions: foliage application, AAH 320 g/ha
Method in brief: as §1

velvetleaf [19] = test: Test Example 5: herbicidal effect by foliage application, plastic box (Table 20, symbol M); format: in vivo, velvetleaf (Abutilon theophrasti); conditions: foliage application, AAH 320 g/ha
Method in brief: as §1

southern crabgrass [20] = test: Test Example 5: herbicidal effect by foliage application, plastic box (Table 20, symbol F); format: in vivo, southern crabgrass (Digitaria ciliaris); conditions: foliage application, AAH 320 g/ha
Method in brief: as §1

green foxtail [21] = test: Test Example 5: herbicidal effect by foliage application, plastic box (Table 20, symbol G); format: in vivo, green foxtail (Setaria viridis); conditions: foliage application, AAH 320 g/ha
Method in brief: as §1

Italian ryegrass [22] = test: Test Example 4: herbicidal effect by soil treatment (Table 19, symbol K); format: in vivo, Italian ryegrass (Lolium multiflorum)
Description: as §4, §5

persian speedwell = test: Test Example 5: herbicidal effect by foliage application, plastic box (Table 20, symbol R); format: in vivo, Persian speedwell (Veronica persica); conditions: foliage application, AAH 320 g/ha
Method in brief: as §1

blackgrass [23] = test: Test Example 4: herbicidal effect by soil treatment (Table 19, symbol J); format: in vivo, blackgrass (Alopecurus myosuroides)
Description: as §4, §5

[24] = evaluated three weeks after application
[25] = amount of applied herbicide 320 g/ha

Compound: Cc1nn(C)c(=O)c(-c2c(-c3ccc([Si](C)(C)C)cc3)sc3ccccc23)c1O [1-153]
- I: wild oat, herbicidal effect (wild oat [1]; three weeks after application): 0 (Herbicidal rate of 5% or less (almost no effect))
- M: velvetleaf, herbicidal effect rating (velvetleaf [2]; AAH 320 g/ha): 0 (Herbicidal rate of 5% or less (almost no effect))
- J: blackgrass, herbicidal effect (blackgrass [3]): 0 (Herbicidal rate of 5% or less (almost no effect))
- F: southern crabgrass, herbicidal effect rating (southern crabgrass [4]; AAH 320 g/ha): 2 (Herbicidal rate of 20% or more and less than 40%)
- G: green foxtail, herbicidal effect rating (green foxtail [5]; AAH 320 g/ha): 3 (Herbicidal rate of 40% or more and less than 70%)
- O: lambsquarters, herbicidal effect rating (lambsquarters [6]; AAH 320 g/ha): 5 (Herbicidal rate of 90% or more (almost completely withered))
- herbicidal effect on H (barnyard grass), rating 0-5 (barnyard grass [7]; 320 g/ha): 4 (Herbicidal rate of 70% or more and less than 90%)
- P: chickweed, herbicidal effect rating (chickweed [8]; AAH 320 g/ha): 0 (Herbicidal rate of 5% or less (almost no effect))
- N: redroot pigweed, herbicidal effect rating (redroot pigweed [9]; AAH 320 g/ha): 3 (Herbicidal rate of 40% or more and less than 70%)
- O: lambsquarters, herbicidal effect (lambsquarters [10]; three weeks after application): 4 (Herbicidal rate of 70% or more and less than 90%)
- L: windgrass, herbicidal effect rating (windgrass [11]; AAH 320 g/ha): 0 (Herbicidal rate of 5% or less (almost no effect))
- H: barnyard grass, herbicidal effect rating (barnyard grass [12]; AAH 320 g/ha): 0 (Herbicidal rate of 5% or less (almost no effect))
- L: windgrass, herbicidal effect (windgrass [13]; three weeks after application): 0 (Herbicidal rate of 5% or less (almost no effect))
- P: chickweed, herbicidal effect (chickweed [14]; three weeks after application): 0 (Herbicidal rate of 5% or less (almost no effect))
- N: redroot pigweed, herbicidal effect (redroot pigweed [15]; three weeks after application): 5 (Herbicidal rate of 90% or more (almost completely withered))
- herbicidal effect on D (Chinese sprangletop), rating 0-5 (Chinese sprangletop; 320 g/ha): 2 (Herbicidal rate of 20% or more and less than 40%)
- I: wild oat, herbicidal effect rating (wild oat [16]; AAH 320 g/ha): 0 (Herbicidal rate of 5% or less (almost no effect))
- herbicidal effect on E (rice flat sedge), rating 0-5 (rice flat sedge; 320 g/ha): 3 (Herbicidal rate of 40% or more and less than 70%)
- H: barnyard grass, herbicidal effect (barnyard grass [17]; three weeks after application): 0 (Herbicidal rate of 5% or less (almost no effect))
- K: Italian ryegrass, herbicidal effect (Italian ryegrass [18]; three weeks after application): 0 (Herbicidal rate of 5% or less (almost no effect))
- M: velvetleaf, herbicidal effect (velvetleaf [19]; three weeks after application): 2 (Herbicidal rate of 20% or more and less than 40%)
- F: southern crabgrass, herbicidal effect (southern crabgrass [20]; three weeks after application): 0 (Herbicidal rate of 5% or less (almost no effect))
- G: green foxtail, herbicidal effect (green foxtail [21]; three weeks after application): 3 (Herbicidal rate of 40% or more and less than 70%)
- K: Italian ryegrass, herbicidal effect rating (Italian ryegrass [22]; AAH 320 g/ha): 0 (Herbicidal rate of 5% or less (almost no effect))
- R: persian speedwell, herbicidal effect (persian speedwell; three weeks after application): 5 (Herbicidal rate of 90% or more (almost completely withered))
- J: blackgrass, herbicidal effect rating (blackgrass [23]; AAH 320 g/ha): 0 (Herbicidal rate of 5% or less (almost no effect))

Compound: CCCC(=O)Oc1c(C)nn(C)c(=O)c1-c1c(-c2cccc(OCc3ccccc3)c2)sc2ccc(F)cc12 [2-268]
- I: wild oat, herbicidal effect (criteria 0-5) (wild oat [1]; [24]): 0 (Herbicidal rate of 5% or less (almost no effect))
- herbicidal effect on M: velvetleaf (velvetleaf [2]; [25]): 0 (Herbicidal rate of 5% or less (almost no effect))
- herbicidal effect on F: southern crabgrass (southern crabgrass [4]; [25]): 0 (Herbicidal rate of 5% or less (almost no effect))
- herbicidal effect on G: green foxtail (green foxtail [5]; [25]): 0 (Herbicidal rate of 5% or less (almost no effect))
- herbicidal effect on O: lambsquarters (lambsquarters [6]; [25]): 0 (Herbicidal rate of 5% or less (almost no effect))
- herbicidal effect on H: barnyard grass (barnyard grass [7]; [25]): 4 (Herbicidal rate of 70% or more and less than 90%)
- herbicidal effect on P: chickweed (chickweed [8]; [25]): 0 (Herbicidal rate of 5% or less (almost no effect))
- herbicidal effect on N: redroot pigweed (redroot pigweed [9]; [25]): 0 (Herbicidal rate of 5% or less (almost no effect))
- O: lambsquarters, herbicidal effect (criteria 0-5) (lambsquarters [10]; [24]): 3 (Herbicidal rate of 40% or more and less than 70%)
- herbicidal effect on L: windgrass (windgrass [11]; [25]): 0 (Herbicidal rate of 5% or less (almost no effect))
- herbicidal effect on H: barnyard grass (barnyard grass [12]; [25]): 0 (Herbicidal rate of 5% or less (almost no effect))
- L: windgrass, herbicidal effect (criteria 0-5) (windgrass [13]; [24]): 1 (Herbicidal rate of 5% or more and less than 20%)
- P: chickweed, herbicidal effect (criteria 0-5) (chickweed [14]; [24]): 5 (Herbicidal rate of 90% or more (almost completely withered))
- N: redroot pigweed, herbicidal effect (criteria 0-5) (redroot pigweed [15]; [24]): 3 (Herbicidal rate of 40% or more and less than 70%)
- herbicidal effect on D: Chinese sprangletop (Chinese sprangletop; [25]): 3 (Herbicidal rate of 40% or more and less than 70%)
- herbicidal effect on I: wild oat (wild oat [16]; [25]): 0 (Herbicidal rate of 5% or less (almost no effect))
- herbicidal effect on E: rice flat sedge (rice flat sedge; [25]): 3 (Herbicidal rate of 40% or more and less than 70%)
- H: barnyard grass, herbicidal effect (criteria 0-5) (barnyard grass [17]; [24]): 4 (Herbicidal rate of 70% or more and less than 90%)
- K: Italian ryegrass, herbicidal effect (criteria 0-5) (Italian ryegrass [18]; [24]): 2 (Herbicidal rate of 20% or more and less than 40%)
- M: velvetleaf, herbicidal effect (criteria 0-5) (velvetleaf [19]; [24]): 1 (Herbicidal rate of 5% or more and less than 20%)
- F: southern crabgrass, herbicidal effect (criteria 0-5) (southern crabgrass [20]; [24]): 1 (Herbicidal rate of 5% or more and less than 20%)
- G: green foxtail, herbicidal effect (criteria 0-5) (green foxtail [21]; [24]): 4 (Herbicidal rate of 70% or more and less than 90%)
- herbicidal effect on K: Italian ryegrass (Italian ryegrass [22]; [25]): 3 (Herbicidal rate of 40% or more and less than 70%)
- R: persian speedwell, herbicidal effect (criteria 0-5) (persian speedwell; [24]): 4 (Herbicidal rate of 70% or more and less than 90%)
- herbicidal effect on J: blackgrass (blackgrass [23]; [25]): 0 (Herbicidal rate of 5% or less (almost no effect))
